Laboratory results as given in patent US20120252721A1 (priority 2011, published 2012).

Assays:
[1] = test system: HCV Con1 subgenomic replicon (GS4.1 cells); test: HCV replicon assay (NS5A ELISA, 72 hrs); type: cell-based; conditions: Hepatitis C virus
Summary of the method: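 GS4.1 cells (Huh-7 carrying the Con1 subgenomic replicon) were seeded at 7.5×10^3 cells/well and dosed 3 h later with ten 2-fold dilutions (top 75 μM) or a single 15 μM in 0.5% DMSO, then held 72 h at 37 °C. NS5A was quantified by cell ELISA (mAb A-236, OPD, A492), and EC50s came from four-parameter sigmoidal fits.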

in vitro = type: cell-based, human; conditions: human; Table 1B, cellular viability
Summary of the method: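 Cytotoxicity counter-screen in which the H1a-luc or Zluc cells were compound-treated and viability was read with the CellTiter 96 AQueous One (MTS) reagent by absorbance at 490 nm. CC50 values came from curve fitting.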

[2] = test system: ZS11-luc P32L (HCV genotype 1b replicon); test: Luciferase replicon transient transfection assay, ZS11-luc P32L; type: cell-based, hepatitis C virus; conditions: for EC50: Hepatitis C virus, 96 h, Huh7.5 cells, 4 days
Experimental: (§1) The luciferase replicon transient transfection assay measures the ability of a test compound to inhibit the replication of a transiently-transfected HCV luciferase-bearing wild-type or mutant replicon in cured human hepatoma cells (Huh7.5). The inhibition of HCV replication was measured by quantification of luciferase protein expression. This assay has been validated using a panel of genotype 1a and 1b replicons bearing mutations known to be associated with resistance to BMS-790052. Briefly, subconfluent Huh7.5 cells were electroporated with 10 μg of wild-type or mutant luciferase-bearing HCV replicon RNA. The cells were then seeded in 96-well opaque white plates at 3×10^4 cells/well in 150 μL/well and incubated for 4 hrs at 37° C./5% CO2. Ten 1:5 serial dilutions of each test compound were made in media (DMEM containing glucose, L-glutamine and sodium pyruvate, 10% fetal bovine serum, 100 IU/mL penicillin, 100 μg/mL streptomycin, 2 mM GlutaMAX, and 1×MEM non-essential amino acids (Mediatech, Inc. and Invitrogen Corp.)) at concentrations that were 4× higher than the final concentrations to be tested and 50 μL/well was added to the transfected cells. Untreated, mock-transfected cells served as a negative control of luciferase expression. The plates were incubated at 37° C./5% CO2 for 4 days whereupon the media was removed and 50 μL of ONE-glo luciferase substrate (Promega) was added to each well. The plates were agitated on a rotating platform at room temperature for 3 min and read in a Victor^3V microplate reader (Perkin-Elmer) using a 700 nm cut-off filter with a 1 sec read time. EC50 values were calculated from dose response curves from the resulting best-fit equations determined by Microsoft Excel and XLfit 4.1 software.

[3] = test system: HCV genotype 1a replicon, NS4B E15G; test: Luciferase replicon transient transfection assay, genotype 1a NS4B E15G; type: cell-based, hepatitis C virus; conditions: for EC50: Hepatitis C virus, HCV region NS4B, mutation E15G; for Ratio: NS4B E15G
Experimental: as §1
(§2) To determine the replication capacity of each mutant relative to the wild-type parental replicon, transfected cells were plated on two plates and were not treated with compound. Luciferase activity was measured at time points of 4 hrs and 4 days after plating for each replicon. Replication capacity was calculated by dividing the day 4 CPS by the 4 hour CPS for each replicon and determining the percentage present for each mutant replicon relative to wild-type replicon values. The NS3, NS4B, and NS5B mutants were prepared and tested according to the methods described herein.

[4] = test system: HCV genotype 1b replicon, NS5B M414T; test: Luciferase replicon transient transfection assay, genotype 1b NS5B M414T; type: cell-based, hepatitis C virus
Experimental: (§3) The luciferase replicon transient transfection assay measures the ability of a test compound to inhibit the replication of a transiently-transfected HCV luciferase-bearing wild-type or mutant replicon in cured human hepatoma cells (Huh7.5). The inhibition of HCV replication was measured by quantification of luciferase protein expression. This assay has been validated using a panel of genotype 1a and 1b replicons bearing mutations known to be associated with resistance to BMS-790052. Briefly, subconfluent Huh7.5 cells were electroporated with 10 μg of wild-type or mutant luciferase-bearing HCV replicon RNA. The cells were then seeded in 96-well opaque white plates at 3×10^4 cells/well in 150 μL/well and incubated for 4 hrs at 37° C./5% CO2. […] The plates were agitated on a rotating platform at room temperature for 3 min and read in a Victor^3V microplate reader (Perkin-Elmer) using a 700 nm cut-off filter with a 1 sec read time. EC50 values were calculated from dose response curves from the resulting best-fit equations determined by Microsoft Excel and XLfit 4.1 software.
(§4) To determine the replication capacity of each mutant relative to the wild-type parental replicon, transfected cells were plated on two plates and were not treated with compound. Luciferase activity was measured at time points of 4 hrs and 4 days after plating for each replicon. […]

[5] = test system: HCV genotype 1a replicon, NS5A E295G; test: Luciferase replicon transient transfection assay, genotype 1a NS5A E295G; type: cell-based, hepatitis C virus; conditions: for EC50: Hepatitis C virus, genotype 1a, HCV region NS5A, mutation E295G
Experimental: as §1

[6] = test system: ZS11-luc replicon, NS3-A156T; test: Luciferase replicon transient transfection assay, NS3-A156T; type: cell-based, hepatitis C virus; conditions: for EC50: Hepatitis C virus
Experimental: as §1, §2

[7] = test system: 1a-luc L31F (HCV genotype 1a replicon); test: Luciferase replicon transient transfection assay, 1a-luc L31F; type: cell-based, hepatitis C virus; conditions: for EC50: Hepatitis C virus, 96 h, Huh7.5 cells, 4 days
Experimental: as §1

[8] = test system: ZS11-luc R30E (HCV genotype 1b replicon); test: Luciferase replicon transient transfection assay, ZS11-luc R30E; type: cell-based, hepatitis C virus; conditions: for EC50: Hepatitis C virus, 96 h, Huh7.5 cells, 4 days
Experimental: as §1

[9] = test system: HCV genotype 1b replicon, NS5B C316Y; test: Luciferase replicon transient transfection assay, genotype 1b NS5B C316Y; type: cell-based, hepatitis C virus
Experimental: as §3, §4

[10] = test system: ZS11-luc Y93N (HCV genotype 1b replicon); test: Luciferase replicon transient transfection assay, ZS11-luc Y93N; type: cell-based, hepatitis C virus; conditions: for EC50: Hepatitis C virus, 96 h, Huh7.5 cells, 4 days
Experimental: as §1

| SMILES | EC50 [1] | CC50 (in vitro) | Ratio [2] | EC50 [2] | EC50 [3] | Ratio [3] | EC50 ([4]; Hepatitis C virus, genotype 1b, NS5B mutation M414T (confers resistance to Benzothiadiazine)) | Ratio ([4]; {}) | EC50 [5] | Ratio [5] | EC50 [6] | Ratio [6] | Ratio [7] | EC50 [7] | Ratio [8] | EC50 [8] | EC50 ([9]; Hepatitis C virus, genotype 1b, NS5B mutation C316Y (confers resistance to Benzofuran/Benzothiadiazine)) | Ratio ([9]; {}) | Ratio [10] | EC50 [10] |
| --- | --- | --- | --- | --- | --- | --- | --- | --- | --- | --- | --- | --- | --- | --- | --- | --- | --- | --- | --- | --- |
| COC(=O)N[C@H](C(=O)N1CCC[C@H]1c1ncc(-c2ccc(-c3csc4c(-c5cnc([C@@H]6CCCN6C(=O)[C@@H](NC(=O)OC)C(C)C)[nH]5)csc34)cc2)[nH]1)C(C)C [Compound A15, [(S)-1-((S)-2-{4-[4-(6-{2-[(S)-1-((S)-2-methoxycarbonylamino-3-methyl-butyryl)-pyrrolidin-2-yl]-3H-imidazol-4-yl}-thieno[3,2-b]thiophen-3-yl)-phenyl]-1H-imidazol-2-yl}-pyrrolidine-1-carbonyl)-2-methyl-propyl]-carbamic acid methyl ester] | < 1 nM | 10000 to 75000 nM |  |  |  |  |  |  |  |  |  |  |  |  |  |  |  |  |  |  |
| COC(=O)N[C@H](C(=O)N1CCC[C@H]1c1ncc(-c2ccc(-c3csc4c(-c5cnc([C@@H]6CCCN6C(=O)[C@H](NC(=O)OC(C)(C)C)c6ccccc6)[nH]5)csc34)cc2)[nH]1)C(C)C [Compound A111, [(S)-1-((S)-2-{4-[4-(6-{(S)-2-[1-((R)-2-tert-butoxycarbonylamino-2-phenyl-acetyl)-pyrrolidin-2-yl]-3H-imidazol-4-yl}-thieno[3,2-b]thiophen-3-yl)-phenyl]-1H-imidazol-2-yl}-pyrrolidine-1-carbonyl)-2-methyl-propyl]-carbamic acid methyl ester] | < 1 nM |  |  |  |  |  |  |  |  |  |  |  |  |  |  |  |  |  |  |  |
| COC(=O)N[C@H](C(=O)N1CCC[C@H]1c1nc2cc(-c3csc4c(-c5ccc(-c6cnc([C@@H]7CCCN7C(=O)[C@H](NC(=O)OC)c7ccccc7)[nH]6)cc5)csc34)ccc2[nH]1)C(C)C [Compound A169, [(S)-1-((S)-2-{6-[6-(4-{(S)-2-[1-((R)-2-methoxycarbonylamino-2-phenyl-acetyl)-pyrrolidin-2-yl]-3H-imidazol-4-yl}-phenyl)-thieno[3,2-b]thiophen-3-yl]-1H-benzoimidazol-2-yl}-pyrrolidine-1-carbonyl)-2-methyl-propyl]-carbamic acid methyl ester] |  |  | 8 | 0.02 nM | 0.003 nM | 1.52 | 0.0018 nM | 1.05 | 0.004 nM | 1.62 | 0.0018 nM | 1.09 | 68 | 0.15 nM | 1 | 0.003 nM | 0.0023 nM | 1.37 | 146 | 0.4 nM |
| COC(=O)N[C@H](C(=O)N1CCC[C@H]1c1ncc(-c2ccc(-c3csc4c(-c5ccc6[nH]c([C@@H]7CCCN7C(=O)[C@H](NC(=O)OC)c7ccccc7)nc6c5)csc34)cc2)[nH]1)C(C)C [Compound A172, [(S)-1-((S)-2-{5-[4-(6-{(S)-2-[1-((R)-2-Methoxycarbonylamino-2-phenyl-acetyl)-pyrrolidin-2-yl]-3H-benzoimidazol-5-yl}-thieno[3,2-b]thiophen-3-yl)-phenyl]-1H-imidazol-2-yl}-pyrrolidine-1-carbonyl)-2-methyl-propyl]-carbamic acid methyl ester] |  |  | 6 | 0.03 nM | 0.006 nM | 1.68 |  |  | 0.006 nM | 1.67 | 0.0026 nM | 1.14 | 67 | 0.3 nM | 1 | 0.006 nM |  |  | 65 | 0.3 nM |
